In patent EP1038864A1, “NOVEL METALLOPROTEINASE INHIBITORS” (FUJI YAKUHIN KOGYO KABUSHIKI KAISHA, priority 1997, dated 1999):
Where two headings read alike, the source gives them in different places.

Experiments:
[1] = target: T1, human fibroblast collagenase (Homo sapiens, UniProt P03956); test: Assay for inhibition of collagenase (fluorescein-labeled bovine type I collagen substrate); type: biochemical; conditions: activated human fibroblast procollagenase, 35°C, 2 hours, pH 7.5; read-out: Inhibition of MMP-1
T1 sequence (P03956 100-469): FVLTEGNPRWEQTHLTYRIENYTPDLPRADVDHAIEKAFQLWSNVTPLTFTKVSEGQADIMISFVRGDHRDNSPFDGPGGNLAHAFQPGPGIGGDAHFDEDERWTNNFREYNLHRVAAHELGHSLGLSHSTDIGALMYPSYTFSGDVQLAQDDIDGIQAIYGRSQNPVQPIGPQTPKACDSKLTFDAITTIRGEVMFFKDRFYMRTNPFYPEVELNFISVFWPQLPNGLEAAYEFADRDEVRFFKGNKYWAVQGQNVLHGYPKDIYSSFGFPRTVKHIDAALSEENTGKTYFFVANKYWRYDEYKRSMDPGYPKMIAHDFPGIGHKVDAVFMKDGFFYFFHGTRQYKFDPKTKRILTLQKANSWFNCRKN
Description: (§1) Described below are assays for biological activities of the compounds according to the present invention, formulations, dosage forms and dosage levels thereof, and miscellaneous matters. The efficacy of the compounds represented by the formula (I) according to the present invention as inhibitors of human fibroblast collagenase (metalloproteinase involved in the breakdown of tissues) is determined by a procedure based on the method of Y. Murawaki et al., Journal of Hepatology, 18, p328-334 (1993). The efficacy of the compounds (I) of this invention as inhibitors of human fibroblast stromelysin is determined by a procedure based on the method of S. S. Twining, Anal. Biochem., 143, p30 (1984). The assay results obtained are shown hereinbelow, together with biological examples which illustrate embodiments of the assay protocols.
The efficacy of compounds of the present invention to act as inhibitors of human fibroblast collagenase was determined by the procedure of Y. Murawaki et al. (Journal of Hepatology, 18, p.328-334, 1993), compared with a reference compound.
Procollagenase was activated by incubation with 2 mM 4-aminophenylmercuric acetate (APMA) at 35°C for 2 hours. The inhibition was assayed using, as a substrate, fluorescein-labeled bovine type I collagen. To a solution of the substrate (0.5 mg/ml) in a 50 mM Tris-HCl buffer, pH 7.5, containing 0.4M aqueous sodium chloride and 10 mM aqueous […] was added the activated collagenase. The resultant solution was incubated at 35°C for 2 hours. The digestion of the substrate with the enzyme was stopped by addition of 80 mM o-phenanthroline, followed by addition of a porcine elastase solution formed by dissolving 25 µg/ml porcine elastase in the aforementioned Tris-HCl buffer. The mixture was incubated at 37°C for 10 minutes. To the resulting solution was added 70% ethanol, and a 170 mM Tris-HCl buffer, pH 9.5, containing 0.67M aqueous sodium chloride. Undigested substrates were precipitated by centrifugation at 3000 x g for 20 minutes. The supernatant was collected and the fluorescence was read using an excitation wavelength of 495 nm and an emission wavelength of 520 nm. The inhibitory potency of the compounds was calculated. […] The resulting assay data for representative examples are shown in Table 1, compared with the reference compound. […]

TNF-α Convertase = TNF-α Convertase (Homo sapiens, UniProt P78536); test: Assay for inhibition of TNF-α production in LPS-stimulated, PMA-differentiated U937 cells
Chain of TNF-α Convertase (P78536 215-824): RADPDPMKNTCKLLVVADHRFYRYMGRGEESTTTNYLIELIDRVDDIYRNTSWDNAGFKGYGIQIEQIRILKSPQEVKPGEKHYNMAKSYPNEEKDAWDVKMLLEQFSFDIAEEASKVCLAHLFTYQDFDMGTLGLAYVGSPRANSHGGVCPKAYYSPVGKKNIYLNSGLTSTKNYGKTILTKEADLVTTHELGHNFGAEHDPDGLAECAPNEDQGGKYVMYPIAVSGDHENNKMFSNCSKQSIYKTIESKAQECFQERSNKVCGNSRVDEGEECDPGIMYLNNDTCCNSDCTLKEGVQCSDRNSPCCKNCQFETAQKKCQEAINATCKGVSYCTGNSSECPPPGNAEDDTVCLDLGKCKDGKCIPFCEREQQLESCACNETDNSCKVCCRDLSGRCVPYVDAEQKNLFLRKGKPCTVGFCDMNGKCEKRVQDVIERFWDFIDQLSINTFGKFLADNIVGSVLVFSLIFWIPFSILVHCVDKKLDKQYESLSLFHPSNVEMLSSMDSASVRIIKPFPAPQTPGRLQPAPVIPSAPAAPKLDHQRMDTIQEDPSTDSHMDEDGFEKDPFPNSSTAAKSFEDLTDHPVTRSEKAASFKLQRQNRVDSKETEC
Description: Human monocytic leukemia cell line U937 (human histiocytic lymphoma cell line U937) cells were cultured in RPMI 1640 (Nissui Pharmaceutical Co., Ltd., Japan) supplemented with 5% fetal calf serum (FCS; IBL, Japan) in an incubator at 37°C under 5% CO2, then transferred to multiplates at a density of 1 x 10^6 cells/1 ml/well, and incubated overnight in the presence of 10^-7 M phorbol 12-myristate 13-acetate (Wako Pure Chemical Industries, Ltd., Japan) to form differentiated macrophage-like cells. To the resultant cells was added E. coli O127:B8 lipopolysaccaride (LPS, 0.1 µg/ml; Sigma) alone or along with each compound of the present invention, and the treated cells were then incubated for 6 hours in an incubator under 5% CO2 at 37°C. After the incubation, the cultures were collected and centrifuged at 3000 rpm for 10 minutes to give supernatants which were diluted with purified water and then assayed using a TNF-α assay kit, Genzyme (Table 3).

[2] = target: human fibroblast stromelysin (Homo sapiens, UniProt P08254); test: Assay for inhibition of stromelysin (fluorescein-labeled casein substrate); type: biochemical
Chain of human fibroblast stromelysin (P08254 100-477): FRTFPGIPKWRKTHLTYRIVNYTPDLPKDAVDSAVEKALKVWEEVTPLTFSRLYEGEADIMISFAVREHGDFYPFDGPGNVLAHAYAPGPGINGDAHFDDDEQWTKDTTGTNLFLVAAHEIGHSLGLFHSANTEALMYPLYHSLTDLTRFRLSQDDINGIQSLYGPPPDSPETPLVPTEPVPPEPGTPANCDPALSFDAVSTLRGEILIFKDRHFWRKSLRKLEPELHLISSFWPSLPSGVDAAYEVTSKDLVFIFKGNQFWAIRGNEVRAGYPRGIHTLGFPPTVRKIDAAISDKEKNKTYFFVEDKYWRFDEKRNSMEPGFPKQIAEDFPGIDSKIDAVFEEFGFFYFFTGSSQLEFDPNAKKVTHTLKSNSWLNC
Description: as §1
The efficacy of compounds of the present invention to act as inhibitors of human fibroblast stromelysin was determined by the procedure of Twining (Anal. Biochem., 143, p.30, 1984), compared with a reference compound.
Prostromelysin was activated by incubation with 20 µg/ml human plasmin at 37°C for 2 hours, and the reaction was stopped by addition of 2.8 mg/ml aqueous diisopropyl fluorophosphate. The inhibition was assayed using, as a substrate, fluorescein-labeled casein. To a solution of the substrate (1 mg/ml) in a 50 mM Tris-HCl buffer, pH 7.8, containing 10mM aqueous calcium chloride was added the activated stromelysin. The resultant solution was incubated at 37°C for 2 hours. The digestion of the substrate with the enzyme was stopped by addition of 5% trichloroacetic acid. Undigested substrates were precipitated by centrifugation at 3000 x g for 20 minutes. The supernatant was collected, followd by additon of a 0.5M Tris-HCl buffer, pH 8.5. The fluorescence was read using an excitation wavelength of 495 nm and an emission wavelength of 520 nm. The inhibitory potency of the compounds was calculated. […] The resulting assay data for representative examples are shown in Table 2, compared with the reference compound.

[3] = plasmin-activated human fibroblast prostromelysin, 37°C, 2 hours, pH 7.8, read-out: Inhibition of MMP-3

SMILES	IC50 [1] [nM]	IC50 (TNF-α Convertase) [nM]	IC50 [2, 3] [nM]	IC50 [2] [nM]
CNC(=O)[C@H](CCCCN)NC(=O)[C@H](CC(C)C)C(CCCc1cccc(C(=O)OC)c1)C(=O)NO (single isomer, unassigned) [Compound No. 71, N^a-[4-(Hydroxyamino)-2(R)-isobutyl-3(R or S)-[3-(m-methoxycarbonylphenyl)propyl]succinyl]-L-lysine N-methylamide· 1 acetate]	4	352		
CNC(=O)C(CCCCNC(C)=N)NC(=O)C(CC(C)C)C(CCCc1ccccc1)C(=O)NO [Compound No. 30, N^a-[4-(Hydroxyamino)-2(R)-isobutyl-3(RS)-(3-phenylpropyl)-succinyl]-N^e-acetimidoyl-L-lysine N-methylamide · 1 acetate]	10			12
CCCOC[C@H](C(=O)N[C@@H](Cc1ccc(OC)cc1)C(=O)NC)[C@H](CSC(C)C)C(=O)NO [Reference Compound No. 1, N-[4-(N-hydroxyamino)-2(R)-n-propyloxymethyl-3(S)-isopropyl-thiomethylsuccinyl)-O-methyl-L-tyrosine-N-methylamide, reference compound]	11			
CNC(=O)[C@H](CCCN)NC(=O)[C@H](CC(C)C)C(CCCc1ccc(CN)cc1)C(=O)NO (single isomer, unassigned) [Compound No. 80, N^a-[4-(Hydroxyamino)-2(R)-isobutyl-3(R or S)-[3-(p-aminomethylphenyl)propyl]succinyl]-L-ornithine N-methylamide· 1 acetate]	9			
CNC(=O)C(CCNC(=N)N)NC(=O)C(CC(C)C)C(CC(C)C)C(=O)NO [Compound No. 27, N^4-[3-Guanidino-1(S)-methylcarbamoylpropyl]-N^1-hydroxy-3(R),2(RS)-diisobutylsuccinamide · 1 acetate]	7		60	

The remaining compounds from weak to strong by IC50 [1], led by results:

IC50 [1] [nM]	IC50 (TNF-α Convertase) [nM]	IC50 [2, 3] [nM]	IC50 [2] [nM]	SMILES
17				CC(=N)NCc1ccc(CC(NC(=O)C(CC(C)C)C(CC(C)C)C(=O)NO)C(=O)NCCO)cc1 [Compound No. 91, N^a-[4-(Hydroxyamino)-2(R),3(RS)-diisobutylsuccinyl]-4'-acetimidoyliminomethyl-L-phenylalanine N-(2-hydroxyethyl)amide· 2 acetate]
14		9		CC(=N)NCCCCC(NC(=O)C(CC(C)C)C(CCCc1ccccc1)C(=O)NO)C(=O)NCCO (single isomer, unassigned) [Compound No. 36, N^a-[4-(Hydroxyamino)-2(R)-isobutyl-3(R or S)-(3-phenylpropyl)-succinyl]-N^e-acetimidoyl-L-lysine N-(2-hydroxyethyl)amide · 1 acetate]
13	737			CNC(=O)C(CCCN)NC(=O)C(CC(C)C)C(CCCc1ccc(CNC(=N)N)cc1)C(=O)NO (single isomer, unassigned) [Compound No. 81, N^a-[4-(Hydroxyamino)-2(R)-isobutyl-3(R or S)-[3-(p-guanidomethylphenyl)propyl]succinyl]-L-ornithine N-methylamide · 2 acetate]
11				CC(C)CC(C(=O)NO)[C@@H](CC(C)C)C(=O)N[C@@H](Cc1ccc(CN)cc1)C(=O)NCCC(=O)O (single isomer, unassigned) [Compound No. 84, N^a-[4-(Hydroxyamino)-2(R),3(R or S)-diisobutylsuccinyl]-4'-aminomethyl-L-phenylalanine N-(2-carboxyethyl)amide· 1 acetate]
9	426	2		CNC(=O)C(CCCNC(=N)N)NC(=O)C(CC(C)C)C(Cc1ccc(CN2C(=O)c3ccccc3C2=O)cc1)C(=O)NO (single isomer, unassigned) [Compound No. 51, N^a-[4-(Hydroxyamino)-2(R)-isobutyl-3(R or S)-(p-phthalimidomethylbenzyl)succinyl]-L-arginine N-methylamide · 1 acetate]
